The record followed here is PMC11855827, “High-Throughput Screening of Five Compound Libraries for Anthelmintic Activity and Toxicity Leads to the Discovery of Two Flavonoid Compounds” (International Journal of Molecular Sciences, 2025).

This assay concerns C. elegans.
The mark [1] stands for this setting: Table S2, C. elegans SS assay, 110 μM, averages of 4 data points.
[2] abbreviates: Table S2, C. elegans SS assay, 110 μM, 24 h, averages of 4 data points.

“And” between values parts separate entries of the source, which are not always exact repeats. Equal entries are not always repeated. Where two headings read alike, the source gives them in different places.

For the compound `CN1CCCN=C1/C=C/c1cccs1.O=C(O)C(O)C(O)C(=O)O` [Pyrantel tartrate, reference compound], the “Inhibition (%) 110 μM (24 h)” value (C. elegans L4 motility, 110 μM, 24 h, mean ± SD of four experiments) turned out to be 26 ± 1%. Further, under setting [1], the “Percentage of motility inhibition 0 h” value is recorded as 85%. Besides, the “Percentage of motility inhibition 24 h” value under setting [2] stood at 61%.

As for `O=c1c(O[C@@H]2O[C@H](CO[C@@H]3O[C@H](CO)[C@@H](O)[C@H](O)[C@H]3O)[C@@H](O)[C@H](O)[C@H]2O)c(-c2ccc(O)c(O)c2)oc2cc(O)cc(O)c12` [Quercetin 3‐gentiobioside], under setting [1], the “Percentage of motility inhibition 0 h” value came to 42%. Besides, the “Percentage of motility inhibition 24 h” value under setting [2] is 0%.

For `O.O.O=c1c(O)c(-c2ccc(O)c(O)c2)oc2cc(O)cc(O)c12` [Quercetin (dihydrate)], the “Percentage of motility inhibition 0 h” value under setting [1] is on record as 0%. Besides, the “Percentage of motility inhibition 24 h” value under setting [2] is 3%.

As to `C=C[C@H]1CN2CC[C@H]1C[C@@H]2[C@@H](O)c1ccnc2ccc(OC)cc12.Cl.O` [Quinidine hydrochloride monohydrate], under setting [1], the “Percentage of motility inhibition 0 h” value worked out at 40%. In addition, the “Percentage of motility inhibition 24 h” value under setting [2] was determined as 6%.

As to `C=C[C@H]1CN2CC[C@H]1C[C@H]2[C@H](O)c1ccnc2ccc(OC)cc12.Cl.O.O` [Quinine (hydrochloride dihydrate)], the “Percentage of motility inhibition 24 h” value under setting [2] was found to be 8%.

On to `C=C[C@H]1C[N@@]2CC[C@H]1C[C@H]2[C@H](O)c1ccnc2ccc(OC)cc12` [Quinine], for which the “Percentage of motility inhibition 24 h” value under setting [2] is 0% and 8% and 1%.

Take `C[C@@H]1O[C@@H](O[C@H]2[C@H](O[C@H]3[C@H](O[C@H]4CC[C@]5(C)[C@H]6CC=C7[C@@H]8CC(C)(C)CC[C@]8(C(=O)O)CC[C@@]7(C)[C@]6(C)CC[C@H]5C4(C)C)OC[C@H](O)[C@@H]3O)O[C@H](CO)[C@@H](O)[C@@H]2O)[C@H](O)[C@H](O)[C@H]1O` [Raddeanin A]: the “Percentage of motility inhibition 0 h” value under setting [1] turned out to be 4%. Under setting [2], the “Percentage of motility inhibition 24 h” value is 6%.

Regarding `C[C@@H]1O[C@@H](O[C@H]2[C@H](O[C@H]3[C@H](O[C@H]4CC[C@]5(C)[C@H]6CC=C7[C@@H]8CC(C)(C)CC[C@]8(C(=O)O[C@@H]8O[C@H](CO[C@@H]9O[C@H](CO)[C@@H](O[C@@H]%10O[C@@H](C)[C@H](O)[C@@H](O)[C@H]%10O)[C@H](O)[C@H]9O)[C@@H](O)[C@H](O)[C@H]8O)CC[C@@]7(C)[C@]6(C)CC[C@H]5C4(C)C)OC[C@H](O)[C@@H]3O)O[C@H](CO)[C@@H](O)[C@@H]2O)[C@H](O)[C@H](O)[C@H]1O` [Raddeanoside R8], under setting [1], the “Percentage of motility inhibition 0 h” value was 3%. Also, the “Percentage of motility inhibition 24 h” value under setting [2] is listed as 0%.

On to `Cl.O=C(c1ccc(OCCN2CCCCC2)cc1)c1c(-c2ccc(O)cc2)sc2cc(O)ccc12` [Raloxifene (hydrochloride)], for which the “Percentage of motility inhibition 0 h” value under setting [1] came to 32%. For the same compound, the “Percentage of motility inhibition 24 h” value under setting [2] came out at 0%.

Consider `Cc1nnc(C(=O)NC(C)(C)c2nc(C(=O)NCc3ccc(F)cc3)c([O-])c(=O)n2C)o1.[K+]` [Raltegravir (potassium salt)], for which the “Percentage of motility inhibition 0 h” value under setting [1] is on record as 3%. For the same compound, the “Percentage of motility inhibition 24 h” value under setting [2] came to 4%.

For `COC(=O)[C@H]1[C@H]2C[C@H]3c4[nH]c5ccccc5c4CCN3C[C@H]2CC[C@@H]1O.Cl` [Rauwolscine (hydrochloride)], the “Percentage of motility inhibition 0 h” value under setting [1] amounted to 7%. The “Percentage of motility inhibition 24 h” value under setting [2] amounted to 0%.

In the case of `C=C1C[C@@]23CC[C@H]4[C@@](C)(CCC[C@@]4(C)C(=O)O[C@@H]4O[C@H](CO)[C@@H](O)[C@H](O)[C@H]4O[C@@H]4O[C@H](CO)[C@@H](O)[C@H](O)[C@H]4O)[C@@H]2CC[C@]1(O[C@@H]1O[C@H](CO)[C@@H](O)[C@H](O[C@@H]2O[C@H](CO)[C@@H](O)[C@H](O)[C@H]2O)[C@H]1O[C@@H]1O[C@H](CO)[C@@H](O)[C@H](O)[C@H]1O)C3` [Rebaudioside D], the “Percentage of motility inhibition 0 h” value under setting [1] was found to be 11%. Further, the “Percentage of motility inhibition 24 h” value under setting [2] is on record as 3%.

For `C=C1C[C@@]23CC[C@H]4[C@@](C)(CCC[C@@]4(C)C(=O)O[C@@H]4O[C@H](CO)[C@@H](O)[C@H](O[C@@H]5O[C@H](CO)[C@@H](O)[C@H](O)[C@H]5O)[C@H]4O[C@@H]4O[C@H](CO)[C@@H](O)[C@H](O)[C@H]4O)[C@@H]2CC[C@]1(O[C@@H]1O[C@H](CO)[C@@H](O)[C@H](O[C@@H]2O[C@H](CO)[C@@H](O)[C@H](O)[C@H]2O)[C@H]1O[C@@H]1O[C@H](CO)[C@@H](O)[C@H](O)[C@H]1O)C3` [Rebaudioside M], under setting [1], the “Percentage of motility inhibition 0 h” value turned out to be 7%. For the same compound, the “Percentage of motility inhibition 24 h” value under setting [2] was 0%.

As for `C[C@]1(O[C@H]2O[C@H](CO)[C@H](O)[C@H](O)[C@H]2O)C[C@@H](O)[C@@H]2C=CO[C@@H](O[C@@H]3O[C@H](CO)[C@@H](O)[C@H](O)[C@H]3O)[C@@H]21` [Rehmannioside C], the “Percentage of motility inhibition 0 h” value under setting [1] is reported as 0%. For the same compound, the “Percentage of motility inhibition 24 h” value under setting [2] turned out to be 8%.

As to `OCC1=C[C@@H](O)[C@]2(O[C@@H]3O[C@H](CO)[C@@H](O)[C@H](O)[C@H]3O[C@@H]3O[C@H](CO)[C@@H](O)[C@H](O)[C@H]3O)C=CO[C@@H](O[C@@H]3O[C@H](CO)[C@@H](O)[C@H](O)[C@H]3O)[C@H]12` [Rehmannioside D], the “Percentage of motility inhibition 0 h” value under setting [1] is 11%. The “Percentage of motility inhibition 24 h” value under setting [2] amounted to 35%.

Turning to `CC1(C)[C@H]2O[C@H]2[C@H]2[C@](C)(O)[C@@H]3CC[C@@H]4[C@@H](O)[C@@]3(C[C@@H](O)[C@@]21O)C[C@@]4(C)O` [Rhodojaponin III], the “Percentage of motility inhibition 0 h” value under setting [1] turned out to be 5%. Also, the “Percentage of motility inhibition 24 h” value under setting [2] is listed as 2%.

For `CC(=O)O[C@@H]1C[C@]23C[C@@](C)(O)[C@H](CC[C@H]2[C@@](C)(O)[C@@H]2[C@@H]4O[C@@H]4C(C)(C)[C@@]12O)[C@H]3O` [Rhodojaponin II], under setting [1], the “Percentage of motility inhibition 0 h” value is listed as 4%. Also, the “Percentage of motility inhibition 24 h” value under setting [2] is 8%.

Consider `C=CCCN1C[C@@H]2C[C@H](C1)c1cccc(=O)n1C2` [Rhombifoline], for which the “Percentage of motility inhibition 0 h” value under setting [1] is reported as 0%. Further, under setting [2], the “Percentage of motility inhibition 24 h” value is reported as 0%.

For the compound `NC[C@H]1O[C@H](O[C@H]2[C@H](O[C@@H]3O[C@H](CO)[C@@H](O)[C@H]3O)[C@@H](O)[C@H](N)C[C@@H]2N)[C@H](N)[C@@H](O)[C@@H]1O.O=S(=O)(O)O` [Ribostamycin (sulfate)], the “Percentage of motility inhibition 0 h” value under setting [1] was 33%. Besides, under setting [2], the “Percentage of motility inhibition 24 h” value stood at 13%.

With `CC(N)C12CC3CC(CC(C3)C1)C2.Cl` (centres unmarked) [Rimantadine (hydrochloride)], the “Percentage of motility inhibition 0 h” value under setting [1] is on record as 45%. Besides, the “Percentage of motility inhibition 24 h” value under setting [2] worked out at 25%.

As for `C=C(C)[C@@H]1CC[C@]2(C)[C@H](CC=C3[C@@H]4[C@@H](C)[C@H](C)CC[C@]4(C)CC[C@]32C)[C@@]1(C)CCC(=O)O` [Roburic acid], the “Percentage of motility inhibition 0 h” value under setting [1] is on record as 11%. The “Percentage of motility inhibition 24 h” value under setting [2] was 15%.

Turning to `C[C@@H]1CC[C@]2(C(=O)O[C@@H]3O[C@H](CO)[C@@H](O)[C@H](O)[C@H]3O)CC[C@]3(C)C(=CC[C@@H]4[C@@]5(C)C[C@@H](O)[C@H](O)C(C)(C)[C@@H]5CC[C@]43C)[C@@H]2[C@]1(C)O` [Rosamultin], the “Percentage of motility inhibition 0 h” value under setting [1] was found to be 21%. For the same compound, under setting [2], the “Percentage of motility inhibition 24 h” value was found to be 1%.

Regarding `COc1cc2c(cc1OC)[C@@H]1Cc3ccc(OC)c(OC)c3CN1CC2` [Rotun dine], the “Percentage of motility inhibition 0 h” value (110 μM) came to 0%. Besides, the “Percentage of motility inhibition 24 h” value (24 h, 110 µM) was determined as 4%.

As to `COc1cc2c(cc1OC)[C@@H]1Cc3ccc(OC)c(OC)c3CN1CC2` [Rotundine], the “Percentage of motility inhibition 24 h” value under setting [2] turned out to be 12%.

In the case of `C=C(C(=O)O)[C@H]1CC[C@H](C)[C@@H]2CC(=O)C(C)=C2C1` [Rupestonic acid], under setting [1], the “Percentage of motility inhibition 0 h” value is given as 0%. In addition, the “Percentage of motility inhibition 24 h” value under setting [2] is given as 8%.

For `C[C@@H]1O[C@@H](OC[C@H]2O[C@@H](Oc3c(-c4ccc(O)c(O)c4)oc4cc(O)cc(O)c4c3=O)[C@H](O)[C@@H](O)[C@@H]2O)[C@H](O)[C@H](O)[C@H]1O` [Ruti n], the “Percentage of motility inhibition 0 h” value under setting [1] was determined as 33%. Further, the “Percentage of motility inhibition 24 h” value under setting [2] is 10%.

For the compound `C[C@@H]1O[C@@H](OC[C@H]2O[C@@H](Oc3c(-c4ccc(O)c(O)c4)oc4cc(O)cc(O)c4c3=O)[C@H](O)[C@@H](O)[C@@H]2O)[C@H](O)[C@H](O)[C@H]1O.O` [Rutin (hydrate)], the “Percentage of motility inhibition 0 h” value under setting [1] is 2%. The “Percentage of motility inhibition 24 h” value under setting [2] was 8%.

As for `C[C@@H]1O[C@@H](OC[C@H]2O[C@@H](Oc3c(-c4ccc(O)c(O)c4)oc4cc(O)cc(O)c4c3=O)[C@H](O)[C@@H](O)[C@@H]2O)[C@H](O)[C@H](O)[C@H]1O.O.O.O` [Rutin (trihydrate)], the “Percentage of motility inhibition 0 h” value under setting [1] stood at 2%. The “Percentage of motility inhibition 24 h” value under setting [2] came out at 9%.

Regarding `COc1ccc(-c2oc3c(CC=C(C)C)c(O)cc(O)c3c(=O)c2O[C@@H]2O[C@@H](C)[C@H](O)[C@@H](O)[C@H]2O[C@@H]2O[C@H](CO)[C@@H](O)[C@H](O)[C@H]2O)cc1` [Sagittatoside A], the “Percentage of motility inhibition 0 h” value under setting [1] turned out to be 43%. Under setting [2], the “Percentage of motility inhibition 24 h” value is listed as 12%.

For the compound `CC1(C)CC[C@@]2(CO)C(=C3C=C[C@@H]4[C@@]5(C)CC[C@H](O)[C@@](C)(CO)[C@@H]5CC[C@@]4(C)[C@]3(C)C[C@H]2O)C1` [Saikogenin D], under setting [1], the “Percentage of motility inhibition 0 h” value is listed as 27%. In addition, the “Percentage of motility inhibition 24 h” value under setting [2] is 14%.

In the case of `CC1(C)CC[C@]23CO[C@@]4(C=C[C@@H]5[C@@]6(C)CC[C@H](O)[C@@](C)(CO)[C@@H]6CC[C@@]5(C)[C@]4(C)C[C@@H]2O)[C@@H]3C1` [Saikogenin F], the “Percentage of motility inhibition 0 h” value under setting [1] worked out at 53%. The “Percentage of motility inhibition 24 h” value under setting [2] was determined as 46%.

Take `C[C@H]1O[C@@H](O[C@H]2CC[C@@]3(C)[C@@H](CC[C@]4(C)[C@@H]3C=CC3=C5CC(C)(C)CC[C@]5(CO)[C@H](O)C[C@]34C)[C@]2(C)CO)[C@H](O)[C@@H](O[C@@H]2O[C@H](CO)[C@@H](O)[C@H](O)[C@H]2O)[C@H]1O` [Saikosaponin B2]: under setting [1], the “Percentage of motility inhibition 0 h” value is 19%. Moreover, under setting [2], the “Percentage of motility inhibition 24 h” value stood at 11%.
